Results taken from patent US20050203127A1, “2-(Phenyl)-2h-pyrazole-3-carboxylic acid-n-4-(thioxo-heterocyclyl)-phenyl-amide derivatives and corresponding imino-heterocyclyl derivatives and relates compounds for use as inhibitors of the coagulation factors xa and/or viia for treating thromboses” (priority 2002, published 2005).

Assays:
factor Xa = factor Xa (Homo sapiens, UniProt P00742); assay: Factor Xa inhibition (FXa-IC50); format: biochemical
From the text: The inhibition of factor Xa by the compounds according to the invention and the measurement of the anticoagulant and antithrombotic activity can be determined by conventional in-vitro or in-vivo methods. A suitable method is described, for example, by J. Hauptmann et al. in Thrombosis and Haemostasis 1990, 63, 220-223.
The inhibition of factor Xa can be measured, for example by the method of T. Hara et al. in Thromb. Haemostas. 1994, 71, 314-319.

TF/FVIIa = TF/FVIIa (Homo sapiens, UniProt P08709); assay: TF/factor VIIa inhibition (TF/FVIIa-IC50); format: biochemical
TF/FVIIa, sequence (P08709 213-466 limits assumed): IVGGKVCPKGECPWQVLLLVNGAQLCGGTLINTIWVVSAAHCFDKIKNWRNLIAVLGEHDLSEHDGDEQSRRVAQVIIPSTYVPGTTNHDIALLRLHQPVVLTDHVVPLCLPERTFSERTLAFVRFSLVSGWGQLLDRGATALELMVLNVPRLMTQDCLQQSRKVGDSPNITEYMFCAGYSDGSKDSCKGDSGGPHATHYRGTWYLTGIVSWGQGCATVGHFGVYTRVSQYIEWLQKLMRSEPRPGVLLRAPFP
TF/FVIIa, sequence (P08709 61-212 limits assumed): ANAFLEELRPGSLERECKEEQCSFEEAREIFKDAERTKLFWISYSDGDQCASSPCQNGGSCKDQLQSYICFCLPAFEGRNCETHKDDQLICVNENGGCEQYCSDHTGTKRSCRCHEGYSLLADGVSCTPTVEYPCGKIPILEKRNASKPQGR
TF/FVIIa, sequence (P13726 33-295 partner): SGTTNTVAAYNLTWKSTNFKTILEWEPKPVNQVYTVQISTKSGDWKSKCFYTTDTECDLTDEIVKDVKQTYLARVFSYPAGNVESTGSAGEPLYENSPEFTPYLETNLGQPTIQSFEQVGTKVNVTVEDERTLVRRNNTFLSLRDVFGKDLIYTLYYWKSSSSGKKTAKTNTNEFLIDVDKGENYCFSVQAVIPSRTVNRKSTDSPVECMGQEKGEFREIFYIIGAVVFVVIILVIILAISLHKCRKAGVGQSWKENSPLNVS
From the text: The inhibition of factor VIIa by the compounds according to the invention and the measurement of the anticoagulant and antithrombotic activity can be determined by conventional in-vitro or in-vivo methods. A conventional method for the measurement of the inhibition of factor VIIa is described, for example, by H. F. Ronning et al. in Thrombosis Research 1996, 84, 73-81.

factor Xa, sequence (P00742 235-488 limits assumed): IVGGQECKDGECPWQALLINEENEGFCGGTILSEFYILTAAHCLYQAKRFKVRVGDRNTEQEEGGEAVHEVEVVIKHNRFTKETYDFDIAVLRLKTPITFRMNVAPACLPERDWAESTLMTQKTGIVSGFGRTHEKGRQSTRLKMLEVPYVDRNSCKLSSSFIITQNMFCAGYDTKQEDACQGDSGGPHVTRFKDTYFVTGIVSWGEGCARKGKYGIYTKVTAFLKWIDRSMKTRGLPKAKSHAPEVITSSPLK
factor Xa, sequence (P00742 41-179 limits assumed): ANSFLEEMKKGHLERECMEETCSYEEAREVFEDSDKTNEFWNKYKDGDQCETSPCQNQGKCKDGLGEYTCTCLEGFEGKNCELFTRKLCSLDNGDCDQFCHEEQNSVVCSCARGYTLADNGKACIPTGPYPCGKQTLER

| IC50 (factor Xa) [nM] | IC50 (TF/FVIIa) [nM] | Compound |
| --- | --- | --- |
| 9.6 | 23 | N=C1CCCN1c1ccc(NC(=O)c2cc(C(F)(F)F)nn2-c2cccc(CN)c2)cc1 [AA, N-[4-(2-iminopyrrolidin-1-yl)phenyl]-2-(3-aminomethylphenyl)-5-trifluoromethyl-2H-pyrazole-3-carboxamide] |
| 330 | 180 | NC(=O)c1cccc(-n2nc(C(F)(F)F)cc2C(=O)Nc2ccc(N3CCCC3=S)c(Cl)c2)c1 [BB, N-[3-chloro-4-(2-thioxopyrrolidin-1-yl)phenyl]-2-(3-aminocarbonylphenyl)-5-trifluoromethyl-2H-pyrazole-3-carboxamide] |
| 200 | 69 | N#CN=C1NCCN1c1ccc(NC(=O)c2cc(C(F)(F)F)nn2-c2cccc(C(N)=O)c2)cc1 [CA, N-[4-(2-cyanoiminoimidazolidin-1-yl)phenyl]-2-(3-aminocarbonylphenyl)-5-trifluoromethyl-2H-pyrazole-3-carboxamide] |
| 92 | 150 | CCc1nn(-c2ccc(NC(=O)c3cc(C(F)(F)F)nn3-c3cccc(C(N)=O)c3)cc2)c(=N)s1 [CB, N-[4-(2-imino-5-ethyl-3H-1,3,4-thiadiazol-3-yl)phenyl]-2-(3-aminocarbonylphenyl)-5-trifluoromethyl-2H-pyrazole-3-carboxamide] |
